Assay results: patent publication US20040072824A1, “Methods and compositions for the treatment of cancer” (priority 2001, published 2004)
Where a name gives a salt, the structure may show the parent alone. Read-outs that look alike come from different tables or passages of the source.

Key:
[1] = test system: MDA-MB-231 (breast cancer line); test: Curative effects on palpable tumors, MDA-MB-231 cells in scid/scid mice; type: in vivo; conditions: for tumor growth: daily once tumors palpable, at least at the higher concentration tested; for death of test animals: higher dosage
Method: In this series of experiments, effects of various compounds of the present invention on tumor development were tested using two protocols. The first protocol is directed to the testing of curative effects of these compounds in different cell lines. In this protocol, cancerous cells are inoculated to the animals, and the inoculated animals were left without any further treatment until the development of tumors. As soon as the tumors became palable (4 mm^3), the compounds of this invention were administered daily to the animals.

U937 = type: in vivo; conditions: for toxicity for the animals: mouse, in vivo; for tumor growth compared to the negative control: treatment from day 1, cells inoculated after more than 24 hours, daily administration
Method: The second protocol was designed to test the preventive effects of the compounds of this invention on tumorigenesis. In this protocol, the animals have been treated with various compounds of the present invention on day 1. After more than 24 hours, tumoral cells were inoculated. The administration of the compounds of this invention was maintained daily. The cell line used for this test was U937.

[2] = test system: blastic cells from AML patients; test: Inhibition of viability of fresh leukemic cells (trypan blue exclusion); type: cell-based, human; conditions: Homo sapiens, day 3; for cytotoxicity at 10 µM: 10^-5 M; for cytotoxicity at 1 µM: 10^-6 M
Method: Samples for AML 1 through 5, AML 1 being the least and AML 5 being the most differentiated, were obtained. […] Cells were incubated with or without […] anti-histamine derivatives. Polaramine was included as a negative control. Cell counts were assessed by trypan blue exclusion test at day 3 after the incubation. Morphological analysis was performed using Wright-Giemsa staining on cytocentrifuge preparations. The results were expressed as % inhibition of growth as compared to negative control.

[3] = test system: K562, U937, MDA-DB231, BT20 and MCF7 cell lines; test: Cytotoxic effects in multi-well plate, 6 days, ATP level (CellTiter-Glo); conditions: 2x10^-9 M to 2x10^-4 M
Method: In order to test the cytotoxic effects of various compounds, a test was developed in a multi-well plate. Two leukemic cell lines, namely K562 and U937, and three breast cancer cell lines, namely MDA-DB231, BT20 and MCF7 were used for this test.
The cells were seeded at low density and were left for 24 hours to recover and reach a new logarithmic phase of growth. Various concentrations of the compounds being tested, ranging from 2×10^−9 M to 2×10^−4 M, were added in triplicate. The mixture was incubated for 6 days, during which approximately 4 doublings of the cell population occurred, to allow the cells to reach subconfluence.
The viability of the cultured cells after the treatment by the compounds was determined by quantifying the level of ATP since the level of ATP is directly proportional to the number of viable cells present in the culture. The ATP level was quantified by using CellTiter-Glo™ (Promega) luminescent test for cell viability.

U937 cells = test: Antineoplastic activity, U937 cells injected in scid/scid mice, treatment from day 1; type: in vivo; conditions: 100 mg/kg; six mice
Method: Ten million U937 cells were subcutaneously injected into scid/scid mice. One injection was carried out per each of the 6 mice tested per set. The excipient or the compounds tested were administered intraperitoneally on day 1, i.e., the day of U937 cell line inoculation, of the experiment. The excipients or compounds were administered once daily. The tumor sizes were measured on day 5, day 8, day 12, day 14 and day 19 after the injection.

TCTP = TCTP expression in treated U937 cells (western blot); type: cell-based; conditions: 24 hours, various dilutions
Method: U937 cells were treated with various dilutions of hydroxyzine, brompheniramine and promethazine for 24 hours as denoted in FIG. 23A. Starting concentrations were: 50 mg/ml for […] (“A”); 10 mg/ml for brompheniramine (“B”); and 25 mg/ml for promethazine (“C”). The proteins were isolated from these cells and loaded onto a gel for western blot analysis. A specific anti-TCTP (anti-HRF) antibody was used to visualize the location of TCTP. […] The level of actin in equal loading of extract was visualized by antiactin antibody (Santa Cruz Biotechnology). No substantial difference between the level of actin in treated and untreated cells was observed.

[4] = test system: K562, U937, Jurkat, T47-D, MCF7, BT20 and 184B5 cell lines; test: Cytotoxicity in malignant and immortalized cell lines (manual counting, Alamar assay); type: cell-based; conditions: all of the cell lines tested
Method: These four compounds were added at different concentrations to cultures of various malignant cell lines and normal cells. The cell lines used for these tests were the following:
All leukemic cell lines were grown and used in logarithmic phase. After one day of treatment, the cells were isolated, counted and diluted in a regular growth medium to provide the cell density of about 75×10^3 cells/ml for reading on plates at 48 hours after the treatment, and […] for reading at 144 hours after the treatment.
Several dilutions of each compound tested were added to the wells (12 wells per plate, TPP), and 1 ml of cells from the parent solution was added per well after a line had been completed. The dilutions were made using the culture medium, and following dilutions were tested: control, which contained no compound of this invention; 1:100; 1:1,000; 1:2,000; 1:5,000; and 1:10,000. The starting concentrations for these dilutions were: 50 mg/ml for compound A; 10 mg/ml for compound B; 25 mg/ml for compound C; and 5 mg/ml for compound D. The results were analyzed by manual counting and Alamar reduced assay.
The cells were grown on their respective propagation medium and seeded 24 hours before the compounds are added. The cells were trypsinized, and 50,000 cells/well and 10,000 cells/well were seeded in order to read the plates at 48 hours and 144 hours after being treated by the compounds, respectively.
On the day of the treatment, the medium was replaced by 10 ml each of series dilution of the compounds, consisting of: control, which contained no compound of this invention; 1:100 dilution; 1:1,000 dilution; 1:2,000 dilution; and 1:5,000 dilution. The starting concentrations for these dilutions were: 50 mg/ml for compound A; 10 mg/ml for compound B; 25 mg/ml for compound C; and 5 mg/ml for compound D. The dilution was made using the growth medium.
A tested compound is regarded as being active in cytotoxicity where the percentage of surviving cells after the treatment with the compound is less than 30%.

[5] = 72 h, MEAN over AML patients, read-out: In Vitro Percent Inhibition of Viability, MEAN
[6] = 72 h, patient ID 3, FAB AML2, read-out: In Vitro Percent Inhibition of Viability
[7] = 72 h, patient ID 4, FAB AML2, read-out: In Vitro Percent Inhibition of Viability
[8] = 72 h, patient ID 5, FAB AML2, read-out: In Vitro Percent Inhibition of Viability
[9] = 72 h, patient ID 10, FAB AML4, read-out: In Vitro Percent Inhibition of Viability
[10] = 72 h, patient ID 11, FAB AML5, read-out: In Vitro Percent Inhibition of Viability
[11] = 72 h, patient ID 12, FAB AML5, read-out: In Vitro Percent Inhibition of Viability
[12] = 72 h, patient ID 13, FAB AML5, read-out: In Vitro Percent Inhibition of Viability
[13] = 72 h, patient ID 14, FAB AML5, read-out: In Vitro Percent Inhibition of Viability
[14] = 72 h, patient ID 15, FAB AML5, read-out: In Vitro Percent Inhibition of Viability
[15] = AML1, 72 h, patient ID 1, FAB AML1, read-out: In Vitro Percent Inhibition of Viability
[16] = AML1, 72 h, patient ID 2, FAB AML1, read-out: In Vitro Percent Inhibition of Viability
[17] = AML3, 72 h, patient ID 6, FAB AML3, read-out: In Vitro Percent Inhibition of Viability
[18] = AML3, 72 h, patient ID 7, FAB AML3, read-out: In Vitro Percent Inhibition of Viability
[19] = AML3, 72 h, patient ID 8, FAB AML3, read-out: In Vitro Percent Inhibition of Viability
[20] = AML3, 72 h, patient ID 9, FAB AML3, read-out: In Vitro Percent Inhibition of Viability

| Structure (SMILES) | tumor growth [1] | death of test animals [1] | toxicity for the animals (U937) | tumor growth compared to the negative control (U937) | cytotoxicity at 10 µM [2, 5] [%] | cytotoxicity at 1 µM [2, 5] [%] | cytotoxicity at 10 µM [2, 6] [%] | cytotoxicity at 1 µM [2, 6] [%] | cytotoxicity at 10 µM [2, 7] [%] | cytotoxicity at 1 µM [2, 7] [%] | cytotoxicity at 10 µM [2, 8] [%] | cytotoxicity at 1 µM [2, 8] [%] | cytotoxicity at 10 µM [2, 9] [%] | cytotoxicity at 1 µM [2, 9] [%] | cytotoxicity at 10 µM [2, 10] [%] | cytotoxicity at 1 µM [2, 10] [%] | cytotoxicity at 10 µM [2, 11] [%] | cytotoxicity at 10 µM [2, 12] [%] | cytotoxicity at 1 µM [2, 12] [%] | cytotoxicity at 10 µM [2, 13] [%] | further results |
| --- | --- | --- | --- | --- | --- | --- | --- | --- | --- | --- | --- | --- | --- | --- | --- | --- | --- | --- | --- | --- | --- |
| Fc1ccc([C@@H]2CCNC[C@H]2COc2ccc3c(c2)OCO3)cc1 [A37, Paroxetine] | decreased tumor growth | caused the death of certain test animals | toxic for the animals | decrease in tumor growth | 55 | 24 | 67 | 25 | 62 | 21 | 43 | 6 | 50 | 39 | 32 | 39 | 76 | 53 | 53 | 33 | cytotoxicity at 1 µM [2, 13]: 35%; cytotoxicity at 10 µM [2, 14]: 41%; cytotoxicity at 1 µM [2, 14]: 9%; cytotoxicity at 10 µM [2, 15]: 50%; cytotoxicity at 1 µM [2, 15]: 0%; cytotoxicity at 10 µM [2, 16]: 41%; cytotoxicity at 1 µM [2, 16]: 25%; cytotoxicity at 10 µM [2, 17]: 54%; cytotoxicity at 1 µM [2, 17]: 19%; cytotoxicity at 10 µM [2, 18]: 63%; cytotoxicity at 1 µM [2, 18]: 3%; cytotoxicity at 10 µM [2, 19]: 56%; cytotoxicity at 1 µM [2, 19]: 12%; cytotoxicity at 10 µM [2, 20]: 97%; cytotoxicity at 1 µM [2, 20]: 53%; cytotoxic effect group [3]: I |
| CC1=C(/C=C/C(C)=C/C=C/C(C)=C/C(=O)O)C(C)(C)CCC1 [ATRA, All Trans Retinoic Acid] | – | – | – | – | – | – | – | – | – | – | – | – | – | – | – | – | – | – | – | – | mice that developed a tumor (U937 cells): all six |
| CN[C@H]1CC[C@@H](c2ccc(Cl)c(Cl)c2)c2ccccc21 [SQ42, sertraline] | decreased tumor growth | caused the death of certain test animals | toxic for the animals | decrease in tumor growth | 61 | 24 | 83 | 16 | 84 | 18 | 26 | 46 | 53 | 39 | 68 | 46 | 73 | 42 | 11 | 38 | cytotoxicity at 1 µM [2, 13]: 25%; cytotoxicity at 10 µM [2, 14]: 78%; cytotoxicity at 1 µM [2, 14]: 0%; cytotoxicity at 10 µM [2, 15]: 42%; cytotoxicity at 1 µM [2, 15]: 17%; cytotoxicity at 10 µM [2, 16]: 59%; cytotoxicity at 1 µM [2, 16]: 20%; cytotoxicity at 10 µM [2, 17]: 35%; cytotoxicity at 1 µM [2, 17]: 11%; cytotoxicity at 10 µM [2, 18]: 82%; cytotoxicity at 1 µM [2, 18]: 15%; cytotoxicity at 10 µM [2, 19]: 72%; cytotoxicity at 1 µM [2, 19]: 36%; cytotoxicity at 10 µM [2, 20]: 79%; cytotoxicity at 1 µM [2, 20]: 38%; cytotoxic effect group [3]: I |
| CN(C)CCC(c1ccc(Br)cc1)c1ccccn1 (stereo not drawn) [brompheniramine, brompheniramine maleate] | – | – | – | – | – | – | – | – | – | – | – | – | – | – | – | – | – | – | – | – | expression of TCTP (TCTP): little effect; cytotoxic activity [4]: little or no cytotoxic activity |
